# Test results published in patent publication US20030118584A1, “Restoration of platelet aggregation by antibody administration after GPIIB/IIIa antagonist treatment” (G.D. Searle & Co., priority 1998, published 2003).
# How the values were obtained:
# [1] = Plasma half-life of compound B in guinea pig; type: in vivo
# Description: Therefore, follow-up studies were conducted in dogs because the half-life of compounds B in this species is more similar to the human half-life than is the half-life in the guinea pig.
# The half life of compound B was determined by fitting the plasma concentrations and determining the elimination rate constant ke. The half-life is calculated as t½=0.693/ke.
# [2] = tested on: heparinized human whole blood; test: Activated clotting time (ACT) in heparinized human whole blood; type: cell-based; settings: 1.4 Units/mL heparin; varying concentrations; FIG. 1
# Excerpt: This process can be used to calculate a standardized concentration curve for various known concentrations of anti-platelet compounds. The process can also be used to measure activated clotting times for use in calculating the ACT number for the processes of the invention.
# A. Blood was drawn from a human volunteer into a syringe containing heparin. The heparin to whole blood ratio was 1:10 such that the final concentration of heparin in the syringe was 1.4 Units/mL.
# B. The Hemochron™-8000 was set up to run ACT using the P-215 tubes from the same manufacturer (International Technidyne).
# A. A 1 mL sample of the above heparinized blood was admixed and maintained (incubated) with 2.5-10 μl of antagonist compound or saline for 5 minutes at room temperature.
# B. The Hemochron™ was started as 400 μl of the test sample was pipetted into the P-215 tube. The tube contents were gently mixed, placed into the Hemochron™ and turned one revolution until the light on the instrument came on.
# C. Step B was repeated for the second channel of the instrument within 30 seconds to give an average activated clotting time. […]
# The activated clotting time was first measured (in seconds) for control whole blood from each donor containing only 1.4 Units/mL of heparin. The clotting times were then measured as in Example 1 by varying concentrations of antiplatelet compounds B and D in addition to heparin for each donor. […]
# [3] = Elimination of compounds B and D from the circulation; type: in vivo; settings: for Route of removal from the circulation: in vivo; for Change in elimination half-life with decreased creatinine clearance: renal impairment
# Excerpt: In renally impaired patients, reversal of the functionality of these compounds would be especially useful in an emergency situation where rapid removal of active compound is desired.
# [4] = Total and free plasma levels of compound B in dog (HPLC); type: in vivo; settings: throughout the three bolus infusions of Mab 9F7, FIG. 11
# Description: In a second study, a dog was treated with a capsule of 10 mg of compound A, BID for 4 days (15 mg on day 3) prior to antibody testing. […] Four hours after the last oral dose of compound A, a dose of pentobarbitol and the monoclonal […] antibody (P187-9F7) was infused by a i.v. bolus injection. Each bolus contained a 5-fold molar excess over drug plasma levels (about 50 mg of Mab 9F7). A control dog was given identical amounts of antibody without compound A oral dosing. Blood samples were collected for aggregation assays at 5, 15, 30 and 60 minutes after each bolus administration of antibody, plasma levels of Mab 9F7, and total and free plasma levels of compound B.
# This method involves the extraction of compound B and an internal standard (compound F, shown hereinafter) from acidified dog plasma with a C18 solid phase extraction column. Analysis is by reverse phase high performance liquid chromatography with fluorescence detection. […] Quality control pools were prepared in dog plasma and quantified using the human calibration curve. A linear weighted (1/concentration squared) least squares regression analysis was used to quantify samples. This method was validated with a minimum quantifiable level of 1.00 ng/mL. […]
# Removed the samples to be analyzed from the freezer and thawed. […] The filtrate was then analyzed by the method given below. […]
# [5] = molecular target: GPIIb/IIIa (Homo sapiens, UniProt P05106+P08514); settings: when administered; cited from earlier work
# [6] = tested on: platelet aggregation; set-up: dose or concentration left out as unconfirmed; settings: anesthetized dogs; for up to 210 minutes; cited from earlier work
Molecule,Half-life [1],Effect of antiplatelet compound concentration on activated clotting time [2],Route of removal from the circulation [3],Change in elimination half-life with decreased creatinine clearance [3],Levels of total compound B (free plus antibody bound) [4],Effect on activated clotting times [5],"Inhibition of platelet aggregation, measured ex vivo [6]"
"C#C[C@H](CC(=O)O)NC(=O)CCC(=O)Nc1ccc(C(=N)N)cc1 [compound B, 3S-[[4-[[4-(aminoiminomethyl)phenyl]amino]-1,4-dioxobutyl]amino]-4-pentynoic acid]",short half-life,directly affect the activated clotting time,almost exclusively by the kidney,appreciable increases,increased throughout the three infusions,–,–
"N=C(N)c1ccc(N2CC[C@H](NC(=O)NCCC(=O)O)C2=O)cc1 [compound D, 3-[[[[1-[4-(aminoiminomethyl)phenyl]-2-oxo-pyrrolidin-3S-yl]amino]carbonyl]amino]propanoic acid]",–,directly affect the activated clotting time,almost exclusively by the kidney,appreciable increases,–,–,–
C7E3: anti-GPIIb/IIIa antibody (Centocor),–,–,–,–,–,increase of activated clotting times,–
cyclic [D-2-aminobutyryl-N2-methyl-L-arginyl-glycyl-L-aspartyl-3-aminomethyl-benzoic acid] methanesulfonic acid salt [DMP728],–,–,–,–,–,–,nearly complete inhibition
